Test results: patent US20080262025A1, “Processes for the Preparation of Zolpidem and its Hemitartrate” (priority 2004, published 2008)

Tests used:
[1] = Hygroscopicity: moisture absorption on exposure to atmospheric / normal storage conditions, stability studies; format: physicochemical; conditions: for hygroscopicity: normal storage conditions / stability studies
[2] = Moisture content by Karl Fischer titration; format: physicochemical
Protocol: • Differential scanning calorimetry plots were recorded using the following instrument and parameters: • DSC821 e, Mettler Toledo • Sample weight: 8-10 mg • Temperature range: 25-300° C. • Heating rate: 10° C./min • Nitrogen 20.0 mL/min • Number of holes in the crucible: 1 (d) TGA analysis was carried out using Perkin Elmer Instrument (e) Moisture content determination was carried out by Karl-Fischer titration technique using Mettler instrument.

Structure (SMILES) | hygroscopicity [1] | Moisture Content ([2]; product of Example 3, dried at 45 to 50° C. under reduced pressure) [% w/w] | moisture absorbed after exposure to atmospheric conditions ([1]; after exposure to atmospheric conditions) | moisture content after absorption of water ([2]; TGA and Karl Fischer analysis, after absorption of water) | moisture content, initial ([2]; TGA and Karl Fischer analysis, initially)
Cc1ccc(-c2nc3ccc(C)cn3c2CC(=O)N(C)C)cc1 [Form I, zolpidem hemitartrate] | non-hygroscopic | 2.33 |  |  | 
Cc1ccc(-c2nc3ccc(C)cn3c2CC(=O)N(C)C)cc1 [Form A, zolpidem hemitartrate] | very hygroscopic |  | up to 5 % w/w | up to 5% | about 1.0 % w/w
